Test results: US6319929A, “Suksdorfin analogs, compositions thereof, and methods for making and using thereof” (priority 1998, dated 2001)

What was measured:
Format in all cases: cell-based
uninfected H9 cells = experiment: Toxicity to uninfected H9 cells (cell growth); conditions: Homo sapiens
Method: HIV inhibition assay. The HIV inhibition was measured as described herein. Briefly, H9 cells, a T cell line, (3.5×10^6 cells/ml) were incubated in the presence or absence of HIV-1 (IIIB strain, 0.01-0.1 TCID50 /cell) for 1 hour at 37° C. Cells were washed thoroughly and resuspended at a final concentration of 2×10^5 cells/ml in the presence or absence of compound. After incubation for 3-4 days at 37° C., the cell density of uninfected cultures was determined by cell count to assess toxicity of the drug. An aliquot of each cell-free supernatant was assayed by p24 antigen ELISA to quantitate the amount of HIV-1 present in the infected cultures. Test compounds were considered to be active at a particular concentration if p24 antigen levels were less than 70% of infected, untreated controls and were nontoxic to uninfected H9 cells.
HIV Growth Inhibition Assay: The T cell line, H9, and the promonocytic cell line, U937, were maintained separately in continuous culture with complete medium (RPMI 1640 and […] fetal calf serum (FCS) at 5% CO2 and 37° C. Cell lines were used in experiments only when in log phase of growth; whereas, uninfected peripheral blood mononuclear cells (PBMCs) were first stimulated with PHA (1 μg/ml) for 3 days. All cell targets were incubated with HIV-1 (IIIB isolate, TCID50 10 ^4 IU/mi, at a multiplicity of infection of 0.1-0.01 IU/cell) for 1 hour at 37° C. and 5% CO2. The cell lines and PBMCs were washed thoroughly to remove unabsorbed virions and resuspended at 4×10^5 cells/ml in complete medium or complete medium with 10% v/v interleukin […] IL-2, respectively. Aliquots ( ml) were placed in wells of 24-well culture plates containing an equal volume of test compound (diluted in the appropriate culture medium). After incubation for 4 days at 37° C., cell density of uninfected cultures was determined by counting cells in a Coulter counter to assess toxicity of the test compound. A p24 antigen ELISA assay was used to determine the level of virus released in the medium of the HIV-infected cultures. The p24 antigen assay uses a HIV-1 anti-p24 specific monoclonal antibody as the capture antibody coated-on 96-well plates. Following a sample incubation period, rabbit serum containing antibodies for HIV-1 p24 is used to tag any p24 "captured" onto the microtiter well surface. Peroxidase conjugated goat anti-rabbit serum is then used to tag HIV-1 p24 specific rabbit antibodies which have complexed with captured p24. […] The cut-off for the p24 ELISA assay is 12. pg/ml. P24 in the culture medium was quantitated against a standard curve containing known amounts of p24. The effective (EC50) and inhibitory (IC50) concentrations (for anti-HIV activity and cytotoxicity, respectively) were determined graphically. Both the EC50 and IC50 values were calculated by plotting drug concentration versus percent inhibition, and then identifying a 50% inhibition value from the graph.

[1] = tested on: HIV-1 replication in fresh monocytes; experiment: HIV-1 infection of fresh monocytes obtained by adherence (p24)
Excerpt: Results (Table 12) from adding Suksdorfin to fresh monocytes infected with HIV-1.
The monocytes which were used for this experiment were obtained by adherence and not by elutriation; therefore, this cell population is not as pure as what was used for the 16 monocyte data above.

[2] = tested on: HIV-1 replication in fresh elutriated monocytes; experiment: HIV-1 infection of primary elutriated monocytes (p24 antigen)
Excerpt: In order to determine if compound 16 suppressive activity was limited to only fresh T cells infected with HIV-1, elutriated monocytes were infected with HIV-1 and then cultured with various concentrations of compound 16 or AZT. […] This illustrates that the effect of the drμg is not only limited to T cells but also can effect virally infected monocytes.

Cc1cn([C@H]2C[C@H](N=[N+]=[N-])[C@@H](CO)O2)c(=O)[nH]c1=O [AZT, azidothymidine, reference compound]
IC50 (uninfected H9 cells; H9, Table 3, H9 lymphocytes): 2000 µM | IC50 (uninfected H9 cells; H9, Table 17, uninfected H9 cell growth): 1880 µM | p24 ([1]; Day 6, 0.008 μg/ml): 42,004 pg/ml | p24 ([1]; Day 6, 0.04 μg/ml): 23,234 pg/ml | p24 ([1]; Day 6, 0.2 μg/ml): 34,360 pg/ml | p24 ([1]; Day 6, 1 μg/ml): 8,705 pg/ml | p24 ([1]; Day 6, 5 μg/ml): 13,542 pg/ml | p24 ([1]; Day 12, 0.008 μg/ml): 70,380 pg/ml | p24 ([1]; Day 12, 0.04 μg/ml): 17,144 pg/ml | p24 ([1]; Day 12, 0.2 μg/ml): 32,778 pg/ml | p24 ([1]; Day 12, 1 μg/ml): 5,354 pg/ml | p24 ([1]; Day 12, 5 μg/ml): 10,170 pg/ml | p24 ([1]; Day 18, 0.008 μg/ml): 75,428 pg/ml | p24 ([1]; Day 18, 0.04 μg/ml): 22,993 pg/ml | p24 ([1]; Day 18, 0.2 μg/ml): 31,759 pg/ml | p24 ([1]; Day 18, 1 μg/ml): 6,830 pg/ml | p24 ([1]; Day 18, 5 μg/ml): 12,330 pg/ml | p24 antigen ([2]; Day 17, 0.0001 μg/ml): 83 pg/mL | p24 antigen ([2]; Day 17, 0.001 μg/ml): 100 pg/mL | p24 antigen ([2]; Day 17, 0.01 μg/ml): 7 pg/mL | p24 antigen ([2]; Day 17, 0.1 μg/ml): 5 pg/mL | p24 antigen ([2]; Day 17, 1 μg/ml): 2 pg/mL | p24 antigen ([2]; Day 17, 10 μg/ml): 0.1 pg/mL | p24 antigen ([2]; Day 28, 0.0001 μg/ml): 0 pg/mL | p24 antigen ([2]; Day 28, 0.001 μg/ml): 0 pg/mL | p24 antigen ([2]; Day 28, 0.01 μg/ml): 0 pg/mL | p24 antigen ([2]; Day 28, 0.1 μg/ml): 0 pg/mL | p24 antigen ([2]; Day 28, 1 μg/ml): 0 pg/mL | p24 antigen ([2]; Day 28, 10 μg/ml): 0 pg/mL
